Assay results taken from patent publication US6342582B1, “Reaction and dissolving medium for peptides and synthesis method using this medium” (Rhodia Chimie, priority 1990, dated 2002).
Counter-ions that a name gives are not always drawn. Where a SMILES comes first, the peptide text is derived from it. The star is where a group is joined. OBn = c1ccc(CO*)cc1

Experiments:
[1] = Dissolving experiments: solubility of the peptide intermediate in solvent or solvent/additive mixture; settings: 25° C.; for Solubility in the 4/1 dichloromethane/phenol mixture: 4/1 dichloromethane/phenol by weight; for Solubility in 4/1 dichloromethane/dimethylformamide: comparison, additive not part of the invention
Protocol: Protocol for dissolving experiments
The solubilities of the peptide intermediate were determined as follows, at a temperature of 25° C.
An accurately weighed amount of the peptide intermediate is placed in a Pyrex tube. The solvent or mixture of solvents to be tested is then introduced using a precision pipette so as to obtain a ratio of mass of peptide/volume of solvent of 8 g/100 cm^3.
The tube, closed by a screw stopper, is then placed on a HEIDOLPH agitator, TOP-MIX model, vibrating at its maximum speed for 60 seconds.
If not, the volume of solvent is doubled and the procedure is started again.
At the end of 4 successive dilutions without complete dissolution, the measurements are repeated on a smaller amount of solid.
Remarks: The composition of the solvent/additive mixtures is expressed by weight.

[2] = Distribution of the peptide between dichloromethane (with phenol) and water; assay type: physicochemical; settings: dichloromethane (12 cm^3) + 3.9 g phenol / aqueous KHCO3 2 N (3 cm^3); HPLC
Protocol: With a view to purification of this tetrapeptide, by washing with water at the end of its synthesis, the distribution of this peptide between dichloromethane and water was studied as follows.
A solution of Gly-Gly-Phe-Leu-OBzl hydrochloride (0.9 mmole) in dichloromethane (12 cm^3) is stirred vigorously in the presence of an aqueous KHCO3 solution (2 N; 3 cm^3). This mixture yields an emulsion which remains stable for several days. A comparative experiment was carried out in the presence of phenol:
A distribution experiment carried out in accordance with Example 15 after the addition of 3.9 g of phenol to the organic solution yields, after identical stirring, two clear liquid phases, the settling out of which is complete in less than 15 minutes.

[3] = Solubility in dichloromethane determined by HPLC, external standardization, on a saturated solution; assay type: physicochemical
Protocol: The solubility in dichloromethane was determined by HPLC, using external standardization, on a saturated solution of Boc-Gly5-OCH3.
The solubility in dichloromethane was determined by HPLC, by external standardization on the supernatant of a saturated solution; the other solubilities were determined as in Example 1: […]

[4] = comparison additive, concentrations lower than 2 g/100 cm^3 were not tested

N[C@@H](Cc1c[nH]cn1)C(=O)N[C@@H](Cc1c[nH]c2ccccc12)C(=O)O [His,Trp.HCl, L-histidinyl-L-tryptophan hydrochloride]
Solubility in the 4/1 dichloromethane/phenol mixture [1]: s = 2 g/100 cm^3
Solubility in dichloromethane [1]: s < 0.05 g/100 cm^3

NC(N)=NCCC[C@H](N)C(=O)N1CCC[C@H]1C(=O)O [Afg-Pro.2HCl, L-arginyl-L-proline dihydrochloride] (H-Arg-Pro-OH)
Solubility in the 4/1 dichloromethane/phenol mixture [1]: s = 2 g/100 cm^3
Solubility in dichloromethane [1]: s < 0.05 g/100 cm^3

CC(C)C[C@H](NC(=O)[C@H](Cc1ccccc1)NC(=O)CNC(=O)CN)C(=O)OCc1ccccc1 [Gly-Gly-Phe-Leu-OBzl, Glycyl-glycyl-L-phenylalanyl-L-leucine benzyl ester] (H-GGFL-OBn)
Share of the tetrapeptide employed found in the aqueous phase [2]: 0.4%

NC(=O)CNC(=O)[C@@H]1CCCN1 [Pro-Gly-NH2.HCl, L-prolyl-glycinamide hydrochloride] (H-Pro-Gly-NH2)
Solubility in 4/1 dichloromethane/dimethylformamide [1]: s < 0.5 g/100 cm^3
Solubility in the 4/1 dichloromethane/phenol mixture [1]: s > 16 g/100 cm^3
Solubility in dichloromethane [1]: s < 0.05 g/100 cm^3

CC(C)C[C@H](N)C(=O)N[C@@H](CCCNC(=N)N)C(=O)N1CCC[C@H]1C(=O)NCC(N)=O [Leu-Arg-Pro-Gly-NH2.HCl, L-leucyl-L-arginyl-L-prolyl-glycinamide hydro-chloride] (H-LRPG-NH2)
Solubility in 4/1 dichloromethane/3-trifluoromethylphenol ([1]; 4/1 dichloromethane/3-trifluoromethylphenol by weight): s = 4 g/100 cm^3
Solubility in 4/1 dichloromethane/4-methoxyphenol ([1]; 4/1 dichloromethane/4-methoxyphenol by weight): s = 4 g/100 cm^3
Solubility in 4/1 dichloromethane/dimethylformamide [1]: s < 0.5 g/100 cm^3
Solubility in the 4/1 dichloromethane/phenol mixture [1]: s = 4 g/100 cm^3
Solubility in 5/1 dichloromethane/2-hydroxypyridine ([1]; 5/1 dichloromethane/2-hydroxypyridine by weight): s = 1 g/100 cm^3
Solubility in dichloromethane [1]: s < 0.05 g/100 cm^3

COC(=O)CNC(=O)CNC(=O)CNC(=O)CNC(=O)CNC(=O)OC(C)(C)C [Boc-Gly5-OCH3, N-tert-butoxycarbonylpentaglycine methyl ester]
Solubility in dichloromethane (HPLC) [3]: s = 0.33 g/100 cm^3
Solubility in 2-chlorophenol ([1]; 2-chlorophenol alone): s > 8 g/100 cm^3
Solubility in 4/1 anisole/phenol ([1]; 4/1 anisole/phenol by weight): s = 4 g/100 cm^3
Solubility in the 4/1 dichloromethane/phenol mixture [1]: s = 4 g/100 cm^3
Solubility in 20/1 dichloromethane/phenol ([1]; 20/1 dichloromethane/phenol by weight): s = 0.5 g/100 cm^3
Solubility in anisole ([1]; anisole): s < 0.05 g/100 cm^3

CC(C)(C)OC(=O)NCC(=O)NCC(=O)NCC(=O)NCC(=O)NCC(=O)OCc1ccccc1 [Boc-Gly-Gly-Gly-Gly-Gly-O-CH2-Ph, N-tert-butoxycarbonylpentaglycine benzyl ester]
Solubility in dichloromethane (HPLC) [3]: s = 0.07 g/100 cm^3
Solubility in 9/1 dichloromethane/phenol ([1]; 9/1 dichloromethane/phenol by weight): s > 5 g/100 cm^3
Solubility in 9/1 dichloromethane/2-octanol [1, 4]: s < 2 g/100 cm^3
Solubility in 9/1 dichloromethane/dimethylformamide [1, 4]: s < 2 g/100 cm^3
Solubility in 9/1 dichloromethane/pivalic acid [1, 4]: s < 2 g/100 cm^3
Solubility in 9/1 dichloromethane/trifluoroethanol [1, 4]: s < 2 g/100 cm^3
Solubility in dichloromethane saturated with LiCl [1, 4]: s < 2 g/100 cm^3

COC(=O)[C@H](Cc1ccc(O)cc1)NC(=O)[C@@H](N)CO [Ser-Tyr-OCH3.HCl, L-serinyl-L-tyrosine methyl ester hydrochloride] (H-Ser-Tyr-OMe)
Solubility in dichloromethane [1]: s < 0.05 g/100 cm^3
